Source: patent publication US11130793B2, “GLP-1/GLP-2 dual agonists” (Zealand Pharma A/S, priority 2016, dated 2021)
Square brackets hold non-standard residues; d marks the D form. Peptide text beside a SMILES is read from it. Aib = CC(C)(N)C(=O)O

What was measured:
human GLP-1 receptor = target: T1, human GLP-1 receptor (Homo sapiens, UniProt P43220); test: GLP-1 receptor potency assay (cAMP AlphaScreen, HEK293 cells stably expressing GLP-1R); format: cell-based; details: cAMP response, HEK293 cells expressing human GLP-1R; read-out: EC50 GLP-1
T1 construct: expressed in transfected cells
Outline: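 A HEK293 clone stably expressing cloned human GLP-1R (G418-selected) was stimulated with compound. Intracellular cAMP was measured by AlphaScreen. Responses were normalized to positive and vehicle controls, and EC50 and maximal response were fitted by 4-parameter logistic regression.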

human GLP-2 receptor = target: T2, human GLP-2 receptor (Homo sapiens, UniProt O95838, D470N); test: GLP-2 receptor potency assay (cAMP AlphaScreen, HEK293 cells stably expressing GLP-2R); format: cell-based; details: cAMP response, HEK293 cells expressing human GLP-2R
T2 sequence (O95838 1-553 D470N): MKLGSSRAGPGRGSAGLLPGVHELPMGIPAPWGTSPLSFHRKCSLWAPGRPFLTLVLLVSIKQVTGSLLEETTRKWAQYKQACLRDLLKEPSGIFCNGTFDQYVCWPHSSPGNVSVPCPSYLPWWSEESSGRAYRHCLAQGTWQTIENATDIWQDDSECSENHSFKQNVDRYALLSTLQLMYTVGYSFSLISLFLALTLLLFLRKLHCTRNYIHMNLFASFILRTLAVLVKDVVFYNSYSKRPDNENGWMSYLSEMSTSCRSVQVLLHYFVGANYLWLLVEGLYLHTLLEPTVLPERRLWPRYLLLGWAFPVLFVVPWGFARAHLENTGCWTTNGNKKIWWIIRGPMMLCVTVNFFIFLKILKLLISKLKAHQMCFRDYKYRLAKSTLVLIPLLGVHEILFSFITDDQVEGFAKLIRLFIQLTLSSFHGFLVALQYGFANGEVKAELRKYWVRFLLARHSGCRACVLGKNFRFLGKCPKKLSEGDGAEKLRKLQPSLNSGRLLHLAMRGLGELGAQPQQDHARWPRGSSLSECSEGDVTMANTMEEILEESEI
Outline: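 HEK293 cells stably expressing human GLP-2R (G418-selected clone); intracellular cAMP measured by AlphaScreen. Responses normalized to positive and vehicle controls; EC50 and maximal response from 4-parameter logistic fit.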

T1 sequence (P43220 24-463): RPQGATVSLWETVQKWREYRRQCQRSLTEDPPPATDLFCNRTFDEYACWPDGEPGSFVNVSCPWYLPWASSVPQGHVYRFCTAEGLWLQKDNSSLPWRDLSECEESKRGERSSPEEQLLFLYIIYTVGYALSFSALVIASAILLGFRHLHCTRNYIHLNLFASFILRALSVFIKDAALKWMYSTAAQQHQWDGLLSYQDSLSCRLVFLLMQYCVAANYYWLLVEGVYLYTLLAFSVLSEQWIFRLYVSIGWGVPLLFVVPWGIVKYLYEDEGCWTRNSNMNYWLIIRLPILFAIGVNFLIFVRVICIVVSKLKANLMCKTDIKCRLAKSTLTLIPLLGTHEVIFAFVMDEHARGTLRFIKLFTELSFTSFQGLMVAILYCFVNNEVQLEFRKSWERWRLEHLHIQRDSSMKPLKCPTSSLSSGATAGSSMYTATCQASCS

Row | EC50 (human GLP-1 receptor) [nM] | EC50 (human GLP-2 receptor) [nM] | SMILES
1 | 0.006 | 0.026 | CC[C@H](C)[C@H](NC(=O)[C@H](Cc1ccccc1)NC(=O)[C@H](CC(=O)O)NC(=O)[C@H](CCCNC(=N)N)NC(=O)[C@H](C)NC(=O)[C@H](C)NC(=O)[C@H](CCC(N)=O)NC(=O)[C@H](CCC(=O)O)NC(=O)[C@H](CC(=O)O)NC(=O)[C@H](CC(C)C)NC(=O)[C@@H](NC(=O)[C@@H](NC(=O)[C@H](C)NC(=O)[C@H](CC(C)C)NC(=O)[C@H](CCC(=O)O)NC(=O)[C@H](CO)NC(=O)[C@@H](NC(=O)[C@H](Cc1ccccc1)NC(=O)[C@@H](NC(=O)CNC(=O)[C@H](CCC(=O)O)NC(=O)C(C)(C)NC(=O)[C@@H](N)Cc1c[nH]cn1)[C@@H](C)O)[C@@H](C)O)[C@@H](C)O)[C@@H](C)CC)C(=O)N[C@@H](C)C(=O)N[C@@H](Cc1c[nH]c2ccccc12)C(=O)N[C@@H](CC(C)C)C(=O)N[C@H](C(=O)N[C@@H](CCCCN)C(=O)N[C@@H](Cc1c[nH]cn1)C(=O)N[C@@H](CCCCN)C(=O)N[C@H](C(=O)N[C@H](C(=O)N[C@@H](CC(=O)O)C(=O)O)[C@@H](C)O)[C@@H](C)CC)[C@@H](C)CC [Compound 16] (H-H[Aib]EGTFTSELATILDEQAARDFIAWLIKHKITD-OH)
2 | 0.02 | 0.078 | CC[C@H](C)[C@H](NC(=O)[C@H](CC(C)C)NC(=O)[C@H](Cc1c[nH]c2ccccc12)NC(=O)[C@H](C)NC(=O)[C@@H](NC(=O)[C@H](Cc1ccccc1)NC(=O)[C@H](CC(=O)O)NC(=O)[C@H](CCCNC(=N)N)NC(=O)[C@H](C)NC(=O)[C@H](C)NC(=O)[C@H](CCCCN)NC(=O)CNC(=O)[C@H](CC(=O)O)NC(=O)[C@H](CC(C)C)NC(=O)[C@@H](NC(=O)[C@@H](NC(=O)[C@H](C)NC(=O)[C@H](CC(C)C)NC(=O)[C@H](CCC(=O)O)NC(=O)[C@H](CO)NC(=O)[C@@H](NC(=O)[C@H](Cc1ccccc1)NC(=O)[C@H](CO)NC(=O)CNC(=O)[C@H](CCC(=O)O)NC(=O)C(C)(C)NC(=O)[C@@H](N)Cc1c[nH]cn1)[C@@H](C)O)[C@@H](C)O)[C@@H](C)CC)[C@@H](C)CC)C(=O)N[C@@H](C)C(=O)N[C@@H](Cc1c[nH]cn1)C(=O)N[C@@H](CCCCN)C(=O)N[C@H](C(=O)N[C@H](C(=O)N[C@@H](CC(=O)O)C(=O)O)[C@@H](C)O)[C@@H](C)CC [Compound 31] (H-H[Aib]EGSFTSELATILDGKAARDFIAWLIAHKITD-OH)
3 | 0.078 | 0.026 | CC[C@H](C)[C@H](NC(=O)[C@H](Cc1ccccc1)NC(=O)[C@H](CC(=O)O)NC(=O)[C@H](CCCNC(=N)N)NC(=O)[C@H](C)NC(=O)[C@H](C)NC(=O)[C@H](CCC(N)=O)NC(=O)[C@H](CCC(=O)O)NC(=O)[C@H](CC(=O)O)NC(=O)[C@H](CC(C)C)NC(=O)[C@@H](NC(=O)[C@@H](NC(=O)[C@H](C)NC(=O)[C@H](CC(C)C)NC(=O)[C@H](CCC(=O)O)NC(=O)[C@H](CO)NC(=O)[C@H](CO)NC(=O)[C@H](Cc1ccccc1)NC(=O)[C@H](CO)NC(=O)CNC(=O)[C@H](CCC(=O)O)NC(=O)C(C)(C)NC(=O)[C@@H](N)Cc1c[nH]cn1)[C@@H](C)O)[C@@H](C)CC)C(=O)N[C@@H](C)C(=O)N[C@@H](Cc1c[nH]c2ccccc12)C(=O)N[C@@H](CC(C)C)C(=O)N[C@H](C(=O)N[C@@H](CCC(N)=O)C(=O)N[C@@H](Cc1c[nH]cn1)C(=O)N[C@@H](CCCCN)C(=O)N[C@H](C(=O)N[C@H](C(=O)N[C@@H](CC(=O)O)C(=O)O)[C@@H](C)O)[C@@H](C)CC)[C@@H](C)CC [Compound 41] (H-H[Aib]EGSFSSELATILDEQAARDFIAWLIQHKITD-OH)
4 | 0.006 | 0.066 | CC[C@H](C)[C@H](NC(=O)[C@H](Cc1ccccc1)NC(=O)[C@H](CC(=O)O)NC(=O)[C@H](CCCNC(=N)N)NC(=O)[C@H](C)NC(=O)[C@H](C)NC(=O)[C@H](CCC(N)=O)NC(=O)[C@H](CCC(=O)O)NC(=O)[C@H](CC(=O)O)NC(=O)[C@H](CC(C)C)NC(=O)[C@@H](NC(=O)[C@@H](NC(=O)[C@H](C)NC(=O)[C@H](CC(C)C)NC(=O)[C@H](CCC(=O)O)NC(=O)[C@H](CO)NC(=O)[C@@H](NC(=O)[C@H](Cc1ccccc1)NC(=O)[C@@H](NC(=O)CNC(=O)[C@H](CCC(=O)O)NC(=O)C(C)(C)NC(=O)[C@@H](N)Cc1c[nH]cn1)[C@@H](C)O)[C@@H](C)O)[C@@H](C)O)[C@@H](C)CC)C(=O)N[C@@H](C)C(=O)N[C@@H](Cc1c[nH]c2ccccc12)C(=O)N[C@@H](CC(C)C)C(=O)N[C@H](C(=O)N[C@@H](CCCNC(=N)N)C(=O)N[C@@H](Cc1c[nH]cn1)C(=O)N[C@@H](CCCCN)C(=O)N[C@H](C(=O)N[C@H](C(=O)N[C@@H](CC(=O)O)C(=O)O)[C@@H](C)O)[C@@H](C)CC)[C@@H](C)CC [Compound 17] (H-H[Aib]EGTFTSELATILDEQAARDFIAWLIRHKITD-OH)
5 | 0.005 | 0.05 | CC[C@H](C)[C@H](NC(=O)[C@H](CC(C)C)NC(=O)[C@H](Cc1c[nH]c2ccccc12)NC(=O)[C@H](C)NC(=O)[C@@H](NC(=O)[C@H](Cc1ccccc1)NC(=O)[C@H](CC(=O)O)NC(=O)[C@H](CCCNC(=N)N)NC(=O)[C@H](C)NC(=O)[C@H](C)NC(=O)[C@H](CCC(N)=O)NC(=O)[C@H](CCC(=O)O)NC(=O)[C@H](CC(=O)O)NC(=O)[C@H](CC(C)C)NC(=O)[C@@H](NC(=O)[C@@H](NC(=O)[C@H](CO)NC(=O)[C@H](CC(C)C)NC(=O)[C@H](CCC(=O)O)NC(=O)[C@H](CO)NC(=O)[C@@H](NC(=O)[C@H](Cc1ccccc1)NC(=O)[C@@H](NC(=O)CNC(=O)[C@H](CCC(=O)O)NC(=O)C(C)(C)NC(=O)[C@@H](N)Cc1c[nH]cn1)[C@@H](C)O)[C@@H](C)O)[C@@H](C)O)[C@@H](C)CC)[C@@H](C)CC)C(=O)N[C@@H](C)C(=O)N[C@@H](Cc1c[nH]cn1)C(=O)N[C@@H](CCCCN)C(=O)N[C@H](C(=O)N[C@H](C(=O)N[C@@H](CC(=O)O)C(=O)O)[C@@H](C)O)[C@@H](C)CC [Compound 10] (H-H[Aib]EGTFTSELSTILDEQAARDFIAWLIAHKITD-OH)
6 | 0.046 | 0.034 | CC[C@H](C)[C@H](NC(=O)[C@H](CC(C)C)NC(=O)[C@H](Cc1c[nH]c2ccccc12)NC(=O)[C@H](C)NC(=O)[C@@H](NC(=O)[C@H](Cc1ccccc1)NC(=O)[C@H](CC(=O)O)NC(=O)[C@H](CCCNC(=N)N)NC(=O)[C@H](C)NC(=O)[C@H](C)NC(=O)[C@H](CCC(N)=O)NC(=O)[C@H](CCC(=O)O)NC(=O)[C@H](CC(=O)O)NC(=O)[C@H](CC(C)C)NC(=O)[C@@H](NC(=O)[C@@H](NC(=O)[C@H](C)NC(=O)[C@H](CC(C)C)NC(=O)[C@H](CCC(=O)O)NC(=O)[C@H](CO)NC(=O)[C@H](CO)NC(=O)[C@H](Cc1ccccc1)NC(=O)[C@@H](NC(=O)CNC(=O)[C@H](CCC(=O)O)NC(=O)C(C)(C)NC(=O)[C@@H](N)Cc1c[nH]cn1)[C@@H](C)O)[C@@H](C)O)[C@@H](C)CC)[C@@H](C)CC)C(=O)N[C@@H](C)C(=O)N[C@@H](Cc1c[nH]cn1)C(=O)N[C@@H](CCCCN)C(=O)N[C@H](C(=O)N[C@H](C(=O)N[C@@H](CC(=O)O)C(=O)O)[C@@H](C)O)[C@@H](C)CC [Compound 2] (H-H[Aib]EGTFSSELATILDEQAARDFIAWLIAHKITD-OH)
7 | 0.012 | 0.26 | CC[C@H](C)[C@H](NC(=O)[C@H](CC(C)C)NC(=O)[C@H](Cc1c[nH]c2ccccc12)NC(=O)[C@H](C)NC(=O)[C@@H](NC(=O)[C@H](Cc1ccccc1)NC(=O)[C@H](CC(=O)O)NC(=O)[C@H](CCCNC(=N)N)NC(=O)[C@H](C)NC(=O)[C@H](C)NC(=O)[C@H](CCC(N)=O)NC(=O)[C@H](CCC(=O)O)NC(=O)[C@H](CC(=O)O)NC(=O)[C@H](CC(C)C)NC(=O)[C@@H](NC(=O)[C@@H](NC(=O)[C@H](C)NC(=O)[C@H](CC(C)C)NC(=O)[C@H](CCC(=O)O)NC(=O)[C@H](CO)NC(=O)[C@@H](NC(=O)[C@H](Cc1ccccc1)NC(=O)[C@@H](NC(=O)CNC(=O)[C@H](CCC(=O)O)NC(=O)C(C)(C)NC(=O)[C@@H](N)Cc1c[nH]cn1)[C@@H](C)O)[C@@H](C)O)[C@@H](C)O)[C@@H](C)CC)[C@@H](C)CC)C(=O)N[C@@H](C)C(=O)N[C@@H](Cc1ccc(O)cc1)C(=O)N[C@@H](CCCCN)C(=O)N[C@H](C(=O)N[C@H](C(=O)N[C@@H](CC(=O)O)C(=O)O)[C@@H](C)O)[C@@H](C)CC [Compound 20] (H-H[Aib]EGTFTSELATILDEQAARDFIAWLIAYKITD-OH)
